The text below walks through data of PMC6981123 (2020).

Test [1] deals with h-TELO (DNA, G4) AGGGTTAGGGTTAGGGTTAGGG
Nature of the test: ITC. Conditions: 100 mM K+; 10 mM HEPES, pH 7.4, 298 K; h-TELO 5 μM in cell.

Test [2] relates to h-TELO (dual-labeled) (DNA, G4) AGGGTTAGGGTTAGGGTTAGGG
Nature of the test: FRET melting. As to conditions: 100 mM K+; 10 mM HEPES, pH 7.4; MG 1.5 μM (3 equiv.), DNA 0.5 μM; Tm 49 to 76 °C.

The test system of test [3] is h-TELO (DNA, G4) AGGGTTAGGGTTAGGGTTAGGG
Nature of the test: fluorescence titration of MG emission. Conditions: 100 mM K+; 10 mM HEPES, pH 7.4, 25 °C; MG 10 μM, h-TELO 0-6 μM.

The structures appear in SMILES notation.

What is called Kd is the concentration at which binding is half-saturated. Low readings indicate a tighter complex, high ones a looser complex. In general, ΔTm refers to the shift of the melting midpoint relative to a reference. Consider `CCCCCCCCCCCCCCCCCC(=O)NCc1cn(CCCC(=O)OC[C@H]2O[C@@H](n3cnc4c(=O)[nH]c(N)nc43)[C@@H]3OC(C)(C)O[C@@H]32)nn1`, for which the figures for the Kd in test [1] and in test [3] were 4.48 µM and 3.2 µM, respectively. The ΔTm in test [2] amounted to 27 °C.
